Test results from patent US20210145830A1, “MATERIALS AND METHODS FOR TREATING CANCER” (Mayo Foundation for Medical Education and Research, priority 2018, published 2021).
Entries after “also recorded” stand apart in the source; their conditions may differ.

Tests used:
Naïve T cells = assay: Inhibitory receptor expression in stimulated naïve T cells; assay type: cell-based; details: PMA/Ionomycin
Description: (§1) FIGS. 19A-F. A. Inhibitory receptors expression in naïve T cells after TCR activation with CD3 stimulation in the increasing dose of TP0903. Naïve T cells were incubated with anti CD3/CD28 beads at a 1 to 3 ratio in the presence of TP0903. At day 3, T cells were stained with PD-1, TIM-3, LAG-3, and ICOS. […] Teff cells were isolated by negative selection using Human T Cell Isolation Kit. Tregs were isolated by negative selection using the human CD4^+CD127^lowCD25^+ Treg isolation kit. Teff and Treg were stimulated with anti CD3/CD28 beads and 400 U/ml of IL-2. At day 5, total T cells were evaluated via CountBright quantification. C. CART19 cytokine assay in the presence TP0903. UTDs or CART19 were incubated with Jeko in the presence of TP-0903 at a 1 to 1 ratio. Supernatant was harvested and analyzed by 32-plex Luminex array after 3 days. D. Inhibitory receptors expression in CART19 cells in the presence TP0903. UTDs or CART19 were incubated with Jeko at a 1 to 1 E/T ratio in the presence of TP0903. At day 5, T cells were stained with PD-1 (left), LAG-3 (right), and TIM-3. […] Cell killing was assessed by luminescence at 24 hours. […]
(§2) FIG. 21A-E. TP0903 modulates naïve T cells function upon stimulation of PMA/Ionomycin in vitro. […] At day 5, total T cells were evaluated via CountBright quantification.

Effector T cells (Teff) = assay: Effector T cell expansion (anti-CD3/CD28 beads, IL-2); assay type: cell-based, human; details: anti-CD3/CD28 beads + 400 U/ml IL-2; day 5
Description: as §1, §2

CART19 = CART19 proliferation assay in the presence of TP0903; assay type: cell-based; details: 5 days
Description: FIG. 2 contains an exemplary timeline for a CART19 proliferation assay in the presence of TP0903. UTDs or CART19 were incubated with Jeko in the presence of TP0903 in 1:1 ratio. At day 5, total T cell numbers were evaluated with CountBright quantification.
T cells were washed and re-suspended at 1×10^7/mL in 100 μL of phosphate-buffered saline and labeled with 100 μL of carboxyfluorescein succinimidyl ester (CFSE) 2.5 μM (Life Technologies) for 5 minutes at 37° C. The reaction was then quenched with cold R10, and the cells were washed three times. Targets were irradiated at a dose of 100 Gy. T cells were incubated at a 1:1 ratio with irradiated target cells for 120 hours. Cells were then harvested, stained for CD3, CAR and Live Dead aqua (Invitrogen), and Countbright beads (Invitrogen) were added prior to flow cytometric analysis.
UTDs or CART19 were incubated with Jeko cell line or primary CLL cells in the presence of TP0903, at 1:1 ratio for 5 days. At the end of the experiment, cells were harvested and stained for CD3, live dead staining was performed, and counti bright beads were added prior to flow cytometric analyses (FIG. 2). Absolute T cell numbers were calculated based on this. […] Low doses of TP0903 (10 nM) increased the number of CART19 cells. A high dose of TP0903 (>100 nM) decreased the number of CART19.

Blood T cells = assay: Correlative analysis of blood T cells in Phase I trial of TP0903 (NCT02729298); assay type: in vivo, patients with solid tumors
Text: FIG. 20. Multiparametric flow cytometric analysis of peripheral blood samples obtained before and after TP0903 treatment in patients with advanced solid tumors. A. Representative CD4^+CD25^+Foxp3^+ regulatory T cells (Treg) (upper right quadrants) at baseline (left) and after treatment (right). Data were pooled from three independent experiments with peripheral blood mononuclear cells from three donors. B. Representative flow plot of CD4^+ and CCR6^− negative cells.
The preclinical findings were validated in a correlative analyses of Phase I clinical trial of TP0903 for patients with solid tumors (NCT02729298). Blood T cells from 3 patients were isolated and analyzed before and a week after treatment with TP0903. […] These findings are further investigated in a Phase I clinical trial of TP0903 in relapsed/refractory CLL (NCT03572634).

[1] = system: p-LCK and GATA-3 in naïve T cells; assay: Western blot of p-LCK and GATA-3 in naïve T cells; assay type: cell-based
Description: FIG. 21A-E. TP0903 modulates naïve T cells function upon stimulation of PMA/Ionomycin in vitro. A. Naïve T cell proliferation assay in the presence of TP0903. Naïve T cells were stimulated with 5 ng/ml of PMA and 0.1 μg/ml of Ionomycin in the absence or in the increasing dose of TP0903 (10-65 nM) for 3 days. […] B. At the end of the expansion on day 3, T cells were stained with inhibitory receptors. […] C. Naïve T cell degranulation assay and cytokine production in the presence of TP0903. Naïve T cells were stimulated with 50 ng/ml of PMA and 1 μg/ml of Ionomycin for 4 hours in the presence of increasing doses of TP0903 (10-65 nM). […] D. Western blot analysis of p-LCK and GATA-3 inhibition by TP0903 in naïve T cells. Naïve T cells were stimulated with 5 ng/ml of PMA and 0.1 ug/ml of Ionomycin in the absence (DMSO) or in the increasing dose of TP0903 (10-65 nM) for 24 hours. […] was used as loading control. E. TP0903 specifically reduces regulatory T cells (Treg). Effector T cells (Teff) were isolated by negative selection using RoboSep™ Human T Cell Isolation Kit (Stemcell Technologies). Tregs were isolated by negative selection using the human CD4^+CD127^lowCD25^+ Treg isolation kit (Stemcell Technologies). Teff and Treg were stimulated with anti-CD3/CD28 beads and 400 U/ml of IL-2. At day 5, total T cells were evaluated via CountBright quantification.

[2] = 3 patients, before vs a week after treatment
[3] = CD4+ CCR6− cells, after TP0903 treatment
[4] = PMA/Ionomycin, 24 hours, highest dose (65 nM)

`CN1CCN(Cc2ccc(Nc3ncc(Cl)c(Nc4ccccc4S(=O)(=O)N(C)C)n3)cc2)CC1` [TP0903] was tested, and the “inhibitory receptors (PD-1, LAG-3, TIM-3, and ICOS)” value (Naïve T cells; day 3, high dose TP0903) was “significantly downregulated”, the inhibitory receptors (Naïve T cells; low dose TP0903) was “significant reduction” and the Teff expansion (Effector T cells (Teff)) was “not interfered”. For the same molecule, the “CART cell specific proliferation” value (CART19; 1:1 with Jeko or primary CLL cells) was “did not impair; also recorded: does not inhibit”, the “number of CART19 cells” value (CART19; high dose of TP0903 (>100 nM)) was “decreased” and the “number of CART19 cells” value (CART19; low doses of TP0903 (10 nM)) was “increased”. For the same molecule, the Th phenotype (Blood T cells; [2]) was “polarization to a Th1 phenotype”, the Tregs (Blood T cells; [2]) was “significant reduction” and the inhibitory receptors (Blood T cells; [2]) was “reduction”. The “CXCR3+CCR4+ (double positive) fraction” value (Blood T cells; [3]) was “increase”, the “CXCR3−CCR4+ fraction (Th2)” value (Blood T cells; [3]) was “Remarked reduction” and the GATA-3 [1, 4] was “modest inhibition”. For the same molecule, the “phosphorylation of LCK” value [1, 4] was “modest inhibition” and the LCK ([1]; T cell lysates, low dose TP0903) was “inhibition”.
